{"source": "paper PMC4365270", "about": "(Cancer Chemotherapy and Pharmacology, 2015)", "origin": "cited, not measured here", "parameters": "method as in earlier work", "settings": "higher doses; cited from earlier work", "data": [{"smiles": "CC[C@H](NC(=O)[C@H](C)NC)C(=O)N1C[C@@H](O)C[C@H]1Cc1c(-c2[nH]c3cc(F)ccc3c2C[C@@H]2C[C@H](O)CN2C(=O)[C@H](CC)NC(=O)[C@H](C)NC)[nH]c2cc(F)ccc12", "note": "[birinapant]", "values": [{"measurement": "Bell’s Palsy syndrome", "result": "increased incidence"}]}]}
